Where “and” joins values, the source holds several entries; their conditions need not be identical. Equal entries are not always repeated. Toxic doses and inconclusive results are not listed. Rule as the data show it: active = T/C of 150% or more; inactive = T/C below 125%.
Tested on: L1210 leukemia ip in BDF1 mice, survival T/C
Assay: NCI In Vivo Anticancer Drug Screen. Data for tumor model L1210 Leukemia (intraperitoneal) in B6D2F1 (BDF1) mice
Details: endpoint: mean survival time, higher = longer survival
Outline: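 Survival endpoint. Drug-treated group vs vehicle group, expressed as T divided by C. Tumor passaged by transplantation.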

[1] = dose: 75.0 mg/kg/injection, schedule: Q04DX003 (ip), vehicle: Klucel (hydroxypropylcellulose) (HPC)
[2] = dose: 100.0 mg/kg/injection, schedule: Q01DX001 (ip), vehicle: Klucel (hydroxypropylcellulose) (HPC)
[3] = dose: 150.0 mg/kg/injection, schedule: Q04DX003 (ip), vehicle: Klucel (hydroxypropylcellulose) (HPC)
[4] = dose: 200.0 mg/kg/injection, schedule: Q01DX001 (ip), vehicle: Klucel (hydroxypropylcellulose) (HPC)
[5] = dose: 300.0 mg/kg/injection, schedule: Q04DX003 (ip), vehicle: Klucel (hydroxypropylcellulose) (HPC)
[6] = dose: 400.0 mg/kg/injection, schedule: Q01DX001 (ip), vehicle: Klucel (hydroxypropylcellulose) (HPC)
[7] = dose: 50.0 mg/kg/injection, schedule: Q01DX009 (ip), vehicle: saline with Tween-80
[8] = dose: 100.0 mg/kg/injection, schedule: Q01DX009 (ip), vehicle: saline with Tween-80
[9] = dose: 200.0 mg/kg/injection, schedule: Q01DX009 (ip), vehicle: saline with Tween-80
[10] = dose: 400.0 mg/kg/injection, schedule: Q01DX009 (ip), vehicle: saline with Tween-80
[11] = dose: 100.0 mg/kg/injection, schedule: Q04DX003 (ip), vehicle: saline
[12] = dose: 200.0 mg/kg/injection, schedule: Q04DX003 (ip), vehicle: saline
[13] = dose: 400.0 mg/kg/injection, schedule: Q04DX003 (ip), vehicle: saline
[14] = dose: 100.0 mg/kg/injection, schedule: Q01DX001 (ip), vehicle: saline
[15] = dose: 100.0 mg/kg/injection, schedule: Q01DX009 (ip), vehicle: saline
[16] = dose: 200.0 mg/kg/injection, schedule: Q01DX001 (ip), vehicle: saline
[17] = dose: 200.0 mg/kg/injection, schedule: Q01DX009 (ip), vehicle: saline
[18] = dose: 400.0 mg/kg/injection, schedule: Q01DX009 (ip), vehicle: saline
[19] = dose: 100.0 mg/kg/injection, schedule: Q01DX001 (ip), vehicle: saline with Tween-80
[20] = dose: 200.0 mg/kg/injection, schedule: Q01DX001 (ip), vehicle: saline with Tween-80
[21] = dose: 400.0 mg/kg/injection, schedule: Q01DX001 (ip), vehicle: saline with Tween-80
[22] = dose: 100.0 mg/kg/injection, schedule: Q04DX003 (ip), vehicle: saline with Tween-80
[23] = dose: 200.0 mg/kg/injection, schedule: Q04DX003 (ip), vehicle: saline with Tween-80
[24] = dose: 400.0 mg/kg/injection, schedule: Q04DX003 (ip), vehicle: saline with Tween-80
[25] = dose: 100.0 mg/kg/injection, schedule: Q01DX009 (ip), vehicle: Klucel (hydroxypropylcellulose) (HPC)
[26] = dose: 200.0 mg/kg/injection, schedule: Q01DX009 (ip), vehicle: Klucel (hydroxypropylcellulose) (HPC)
[27] = dose: 100.0 mg/kg/injection, schedule: Q04DX003 (ip), vehicle: Klucel (hydroxypropylcellulose) (HPC)
[28] = dose: 200.0 mg/kg/injection, schedule: Q04DX003 (ip), vehicle: Klucel (hydroxypropylcellulose) (HPC)
[29] = dose: 400.0 mg/kg/injection, schedule: Q04DX003 (ip), vehicle: Klucel (hydroxypropylcellulose) (HPC)

Measured: T/C

CC(=O)OC1([N+](=O)[O-])c2ccccc2C2CC1c1ccccc12 (centres undefined)
inactive: [1] 112 % of control | [2] 91 % of control | [3] 107 % of control | [4] 99 % of control | [5] 97 % of control | [6] 100 % of control

c1ccc(CN2CCN(Cc3ccccc3)C2c2ccccc2)cc1
inactive: dose: 25.0 mg/kg/injection, schedule: Q01DX009 (ip), vehicle: saline with Tween-80 97 % of control | [7] 103 % of control | [8] 106 % of control | [9] 105 % of control | [10] 106 % of control

C/C(=C/c1c(Br)cc(Br)c(N)c1Br)C(=O)O
inactive: [11] 100 % of control | [12] 102 % of control | [13] 102 % of control

CCC([N+](=O)[O-])S(=O)(=O)c1ccc(C)cc1 (centres undefined)
inactive: [14] 98 % of control | [15] 98 % of control | [11] 102 % of control | [16] 95 % of control | [17] 94 % of control and 95 % of control | [12] 100 % of control | dose: 400.0 mg/kg/injection, schedule: Q01DX001 (ip), vehicle: saline 93 % of control | [18] 93 % of control and 103 % of control | [13] 94 % of control

CCOC(=O)C(CC)C(O)c1cccc(OC)c1 (centres undefined)
inactive: [7] 94 % of control | [8] 94 % of control | [9] 94 % of control

O=C(CC(=O)c1cccc(NC(=O)CC(/C=C/C=C/CCCCCCCCCCCCCCCCC2CC(=O)OC2=O)C(=O)O)c1)Nc1ccccc1 (centres undefined)
inactive: [1] 94 % of control | [2] 90 % of control | [3] 95 % of control | [4] 90 % of control | [5] 103 % of control | [6] 87 % of control

Cc1c(/C=N/N(CCO)CCO)[nH]c(=O)[nH]c1=O
inactive: [19] 103 % of control | [20] 103 % of control | [21] 98 % of control

CC(C)C1SC(=S)NC1=O (centres undefined)
inactive: [14] 88 % of control | [16] 95 % of control

COC(OC)c1nc(NC(C)=O)[nH]c(=O)c1Cc1ccc(N)cc1
inactive: [8] 96 % of control | [22] 94 % of control | [9] 89 % of control | [23] 96 % of control | [10] 97 % of control | [24] 110 % of control

O=C(Nc1cccc(C2=NCCN2)c1)c1ccc(-c2ccc(C(=O)Nc3cccc(C4=NCCN4)c3)cc2)cc1
inactive: dose: 50.0 mg/kg/injection, schedule: Q01DX Z (ip), vehicle: carboxymethylcellulose (CMC) 101 % of control | dose: 65.0 mg/kg/injection, schedule: Q01DX Z (ip), vehicle: methylcellulose (MC) 121 % of control | dose: 100.0 mg/kg/injection, schedule: Q01DX Z (ip), vehicle: carboxymethylcellulose (CMC) 120 % of control | dose: 100.0 mg/kg/injection, schedule: Q01DX Z (ip), vehicle: methylcellulose (MC) 113 % of control | dose: 400.0 mg/kg/injection, schedule: Q01DX Z (ip), vehicle: carboxymethylcellulose (CMC) 117 % of control

CCOC(=O)C1=C(C)C(C)C(=O)NC1=O (centres undefined)
inactive: [19] 100 % of control | [20] 101 % of control | [9] 110 % of control | [21] 96 % of control | [10] 96 % of control

OC1OCC(Cc2ccc3c(c2)OCO3)C1Cc1ccc2c(c1)OCO2 (centres undefined)
inactive: [15] 91 % of control | [17] 99 % of control | [18] 88 % of control

CNC(=O)NNC(=O)CNC(=O)Nc1ccc(Cl)c(Cl)c1
inactive: [25] 106 % of control | [26] 93 % of control | dose: 400.0 mg/kg/injection, schedule: Q01DX009 (ip), vehicle: Klucel (hydroxypropylcellulose) (HPC) 97 % of control

O=C1CC(c2ccccc2)C2(c3ccccc3)OC12 (centres undefined)
inactive: [19] 101 % of control | [20] 94 % of control | [21] 111 % of control

CN(C)N=Nc1ccc(C#N)cc1
inactive: dose: 50.0 mg/kg/injection, schedule: Q01DX001 (ip), vehicle: saline with Tween-80 105 % of control | [7] 96 % of control | dose: 50.0 mg/kg/injection, schedule: Q04DX003 (ip), vehicle: saline with Tween-80 101 % of control | [19] 106 % of control | [8] 91 % of control | [22] 105 % of control | [20] 118 % of control | [9] 100 % of control | [23] 97 % of control | [21] 122 % of control | [10] 102 % of control | [24] 108 % of control

O=C(NCCBr)Nc1ccc2c(c1)CCCC2
inactive: [27] 102 % of control | [28] 93 % of control | [29] 93 % of control

Cc1nnc(NC(=O)NCCCl)s1
inactive: [27] 100 % of control | [28] 107 % of control | [29] 118 % of control

CCc1ccccc1NC(=O)Oc1cccc(C(F)(F)F)c1
inactive: [15] 104 % of control | [17] 94 % of control | [18] 103 % of control

COc1ccc2c(c1)c1c(C)c3cnccc3c(C)c1n2CCOC(C)=O
inactive: dose: 12.5 mg/kg/injection, schedule: Q01DX009 (ip), vehicle: saline 107 % of control | dose: 25.0 mg/kg/injection, schedule: Q01DX009 (ip), vehicle: saline 100 % of control | dose: 50.0 mg/kg/injection, schedule: Q01DX009 (ip), vehicle: saline 112 % of control | [19] 88 % of control | [20] 100 % of control | [21] 120 % of control

CC(=O)Nc1cc(Cl)ccc1Cl
inactive: [27] 102 % of control | [28] 88 % of control | [29] 102 % of control

O=C1CC2(CCCCC2)CO1
inactive: dose: 0.78 mg/kg/injection, schedule: Q04DX003 (ip), vehicle: saline 100 % of control | dose: 1.56 mg/kg/injection, schedule: Q04DX003 (ip), vehicle: saline 100 % of control | dose: 3.12 mg/kg/injection, schedule: Q04DX003 (ip), vehicle: saline 103 % of control | dose: 6.25 mg/kg/injection, schedule: Q04DX003 (ip), vehicle: saline 103 % of control | dose: 12.5 mg/kg/injection, schedule: Q04DX003 (ip), vehicle: saline 92 % of control

COC(=O)c1cc2c(s1)C(=O)c1ccccc1-2
inactive: [27] 104 % of control | [28] 94 % of control | [29] 105 % of control

COc1ccc2oc(=O)[nH]c2c1
inactive: [19] 100 % of control | [20] 100 % of control | [21] 100 % of control

ClCc1cc(Cl)c(Cl)cc1Cl
inactive: dose: 25.0 mg/kg/injection, schedule: Q01DX009 (ip), vehicle: acetone 93 % of control | dose: 50.0 mg/kg/injection, schedule: Q01DX009 (ip), vehicle: acetone 92 % of control | dose: 100.0 mg/kg/injection, schedule: Q01DX009 (ip), vehicle: acetone 90 % of control | dose: 100.0 mg/kg/injection, schedule: Q04DX003 (ip), vehicle: acetone 100 % of control | dose: 150.0 mg/kg/injection, schedule: Q01DX009 (ip), vehicle: acetone 95 % of control

CC(=O)N(C)c1ccc(NC(=O)CCl)cc1
inactive: [25] 109 % of control | [26] 116 % of control

CC/C(C)=N\NC(N)=S
inactive: dose: 6.25 mg/kg/injection, schedule: Q01DX009 (ip), vehicle: Klucel (hydroxypropylcellulose) (HPC) 91 % of control | dose: 12.5 mg/kg/injection, schedule: Q01DX009 (ip), vehicle: Klucel (hydroxypropylcellulose) (HPC) 92 % of control | dose: 12.5 mg/kg/injection, schedule: Q04DX002 (ip), vehicle: Klucel (hydroxypropylcellulose) (HPC) 92 % of control | dose: 25.0 mg/kg/injection, schedule: Q04DX002 (ip), vehicle: Klucel (hydroxypropylcellulose) (HPC) 98 % of control

Cn1ccc(=O)[nH]c1=O
inactive: [27] 96 % of control | [28] 89 % of control | [29] 115 % of control

Cc1ccc(/C=N/N)s1
inactive: dose: 100.0 mg/kg/injection, schedule: Q04DX003 (ip), vehicle: other 92 % of control | dose: 200.0 mg/kg/injection, schedule: Q04DX003 (ip), vehicle: other 99 % of control

Source: PubChem BioAssay AID248 (DTP/NCI, 2004)
